Where “and” joins values, the source holds several entries; their conditions need not be identical. Identical values can stand only once.
Tests used:
peritoneal macrophages = test: LPS-stimulated TNF-alpha release (ELISA), macrophages from treated C57 BL/6 mice; assay type: in vivo, mouse; conditions: 5 mg/kg, 4 hours, i.p.; LPS 5 μg/mL, 90 min
Procedure: The effects of DAGLB-inhibition on the proinflammatory response in Pla2g4a^+/+ versus Pla2g4a^−/− mice also was evaluated. Thioglycolate-elicited macrophages from C57 BL/6 mice treated with KT109 or KT195 (5 mg/kg, 4 hours, i.p.) were harvested, plated, and stimulated with lipopolysaccharide (LPS).

ABHD6 = biological target: T1, ABHD6 (Mus musculus, UniProt Q8R2Y0); test: ABPP-SILAM of brain tissue from treated mice; assay type: in vivo; parameters: from tissue; host or cells: thioglycolate-elicited peritoneal macrophages of mice; conditions: may not represent actual changes
T1 sequence (Q8R2Y0 1-336): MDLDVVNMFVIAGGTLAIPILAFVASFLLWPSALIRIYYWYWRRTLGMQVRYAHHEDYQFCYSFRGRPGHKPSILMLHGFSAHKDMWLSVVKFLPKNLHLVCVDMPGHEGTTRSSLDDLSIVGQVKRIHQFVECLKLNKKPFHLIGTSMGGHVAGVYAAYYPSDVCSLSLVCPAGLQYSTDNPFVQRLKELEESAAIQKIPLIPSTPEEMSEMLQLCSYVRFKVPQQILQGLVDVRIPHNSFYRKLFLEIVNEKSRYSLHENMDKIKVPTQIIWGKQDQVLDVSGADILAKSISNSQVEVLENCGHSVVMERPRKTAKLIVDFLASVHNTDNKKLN
Procedure: The potency and selectivity of 1,2,3-triazole ureas in vivo also was investigated. Mice were treated with the APEH inhibitor AA74-1 at various doses (0.2-1.6 mg/kg; PEG300 or 18:1:1 saline/ethanol/emulphor intraperitoneally) and sacrificed after 4 h. Brains and hearts were removed, homogenized, and analyzed by gel-based competitive ABPP. […] Finally, the possibility of extending ABPP-SILAC for the characterization of inhibitor selectivity in vivo was explored by taking advantage of recently described protocols for stable isotope labeling in mammals (SILAM). In this approach, brain tissues from vehicle- and AA74-1-treated mice were separately mixed with equivalent amounts of brain tissue from ‘heavy’ amino acid-fed mice, and the samples were then labeled with FP-biotin, enriched by avidin chromatography, analyzed by LC-MS, and SH activities quantified by measuring the ratio-of-ratios for observed peptide signals. […] The ratio-of-ratio signals for APEH indicated greater than 90% inhibition of this enzyme in AA74-1-treated animals (FIG. 5b, top), consistent with average spectral count values (14 and 1 spectral counts for APEH in vehicle-treated versus AA74-1-treated mice, respectively; FIG. 5b, bottom). […]
C57BL6 mice were labeled with ^15N. […] Brains were determined to be 95% labeled by mass spectrometry with ^15N and used for quantitative analysis. […]

human APEH = biological target: T2, human APEH (Homo sapiens, UniProt P13798); test: Competitive ABPP, soluble fractions of human cancer cells; assay type: biochemical
T2 construct: endogenous in cells; host or cells: SKOV3, C8161, MDA-MB-231 (soluble fractions)
Procedure: The soluble fractions of human ovarian (SKOV3), melanoma (C8161), and breast (MDA-MB-231) cancer cells, as well as rat neuroblastoma (B103) cells were treated with 30 nM AA74-1 or DMSO for 30 minutes at 37° C., after which the samples were analyzed by competitive ABPP. Inhibited APEH is highlighted with boxes. Note that other SHs detected in human and mouse proteomes were not inhibited by AA74-1.

APEH = biological target: T3, APEH (Mus musculus, UniProt Q8R146); test: Gel-based competitive ABPP, mouse T-cell proteome in vitro; assay type: biochemical
T3 sequence (Q8R146 1-732): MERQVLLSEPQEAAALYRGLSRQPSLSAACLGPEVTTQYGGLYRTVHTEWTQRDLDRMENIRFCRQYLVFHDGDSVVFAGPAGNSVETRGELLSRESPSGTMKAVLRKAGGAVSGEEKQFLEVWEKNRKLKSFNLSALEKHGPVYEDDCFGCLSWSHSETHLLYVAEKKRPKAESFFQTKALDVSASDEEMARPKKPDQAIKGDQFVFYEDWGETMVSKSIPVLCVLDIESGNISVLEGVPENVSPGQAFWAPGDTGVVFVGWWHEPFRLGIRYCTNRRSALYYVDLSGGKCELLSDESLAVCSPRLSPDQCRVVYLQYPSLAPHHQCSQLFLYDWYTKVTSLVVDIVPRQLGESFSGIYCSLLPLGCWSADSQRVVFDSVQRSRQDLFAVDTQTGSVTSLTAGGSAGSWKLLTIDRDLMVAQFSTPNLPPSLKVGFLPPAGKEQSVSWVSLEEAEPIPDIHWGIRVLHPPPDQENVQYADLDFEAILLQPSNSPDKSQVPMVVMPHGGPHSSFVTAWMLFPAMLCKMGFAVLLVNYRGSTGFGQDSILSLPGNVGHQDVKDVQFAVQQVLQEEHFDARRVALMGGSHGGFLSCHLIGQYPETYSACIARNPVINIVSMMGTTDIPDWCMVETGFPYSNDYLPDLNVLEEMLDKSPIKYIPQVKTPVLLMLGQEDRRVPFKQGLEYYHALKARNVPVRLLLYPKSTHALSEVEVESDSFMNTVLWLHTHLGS
Procedure: The carbamoyl triazole regioisomers were separated by gel chromatography and used for subsequent experiments. […] The compounds were screened at concentrations of 10 and 100 nM in mouse T-cell proteomes (FIG. 3e and FIG. 12).
Gel-based competitive ABPP experiments were performed as described previously. For competitive ABPP with FP-rhodamine, proteomes (1 mg/mL in PBS) were treated with FP-rhodamine (2 μM final concentration) in a […] total reaction volume. After 30 minutes at 25° C., the reactions were quenched with 2×SDS-PAGE loading buffer.
Proteomes were incubated with inhibitors for 30 minutes at 37° C. (in vitro) or for 4 h at 37° C. (in situ) at the indicated concentrations (n=3) prior to FP-rhodamine labeling. After SDS-PAGE and in-gel visualization, the percentage enzymatic activity remaining was determined by measuring the integrated optical intensity of the bands using IMAGER® software. IC50 values were determined from a dose-response curve generated using PRISM® software (GraphPad).

T2 sequence (P13798 whole entry): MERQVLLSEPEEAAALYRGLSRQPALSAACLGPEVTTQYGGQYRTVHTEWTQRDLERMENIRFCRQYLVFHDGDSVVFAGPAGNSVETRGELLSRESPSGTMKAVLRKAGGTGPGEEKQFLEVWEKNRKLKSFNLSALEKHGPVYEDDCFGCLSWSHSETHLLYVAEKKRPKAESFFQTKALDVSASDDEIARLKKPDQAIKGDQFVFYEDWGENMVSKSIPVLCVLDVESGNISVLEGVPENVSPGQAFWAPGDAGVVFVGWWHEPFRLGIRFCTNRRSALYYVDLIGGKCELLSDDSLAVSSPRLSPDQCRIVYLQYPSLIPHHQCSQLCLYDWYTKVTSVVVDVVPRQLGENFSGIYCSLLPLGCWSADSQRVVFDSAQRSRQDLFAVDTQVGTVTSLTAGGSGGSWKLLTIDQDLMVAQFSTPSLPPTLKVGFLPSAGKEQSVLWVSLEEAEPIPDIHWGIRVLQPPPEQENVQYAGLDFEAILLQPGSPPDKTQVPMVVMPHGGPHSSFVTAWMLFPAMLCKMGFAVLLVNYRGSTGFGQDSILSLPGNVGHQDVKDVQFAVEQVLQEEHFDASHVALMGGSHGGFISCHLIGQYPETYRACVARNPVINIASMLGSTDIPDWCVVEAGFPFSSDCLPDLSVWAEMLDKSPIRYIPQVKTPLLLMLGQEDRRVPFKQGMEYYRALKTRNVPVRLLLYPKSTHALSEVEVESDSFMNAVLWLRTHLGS

Row | Structure (SMILES) | secreted TNF-alpha levels (peritoneal macrophages) | partial inhibition of ABHD6 suggested by ratio-of-ratio signals (ABHD6) | IC50 (human APEH) [nM] | inhibition of APEH (APEH; 10 nM) | IC50 (APEH; IC50 for APEH, in vitro, 30 minutes at 37° C., mouse)
1 | O=C(N1CCCCC1Cc1ccccc1)n1cc(-c2ccc(-c3ccccc3)cc2)nn1 (centres unmarked) [KT109] | modest but significant reduction in secreted TNF-alpha levels |  |  |  | 
2 | CC(C)CC(O)(CC(C)C)c1cnn(C(=O)N2CCCC2)n1 [AA74-1] |  | 50-60% | 11 | completely inhibited APEH | 5 nM and 3 nM

Source: patent publication US9108930B2, “N1- and N2-carbamoyl-1,2,3-triazole serine hydrolase inhibitors and methods” (The Scripps Research Institute, priority 2011, dated 2015)
